Measurements as given in US11413290B2, “Amorphous solid dispersions of dasatinib and uses thereof” (NANOCOPOEIA, LLC, priority 2020, dated 2022).

Assays:
[1] = dasatinib in crystalline forms; cited from earlier work
[2] = Amorphicity / crystallinity by XRD; type: physicochemical; conditions: Comparative Example; promptly after spray drying and secondary drying
Experimental: The percent of crystallinity was calculated as follows: % crystallinity=area of crystalline peaks/(area of crystalline peaks+amorphous peaks)
Amorphicity and glass transition temperature were assessed using the methodology described in Example 1.

[3] = Water content by coulometric Karl Fischer titration; type: physicochemical; conditions: Comparative Example; promptly after preparation
[4] = Assay and total impurities by HPLC (Example 6); type: physicochemical; conditions: Comparative Example; promptly after preparation
Experimental: Assay and total impurities of the ASDs were assessed using either an Agilent 1200 HPLC or a Waters Alliance e2695 HPLC.
L100-55 ASDs and in Table 37 for Dasatinib:METHOCEL E5 ASDs at t=0 and at each stability time point. These reported assay values are corrected for the measured water content of the sample.

[5] = Glass transition temperature by mDSC; conditions: Comparative Example; promptly after preparation

| XRD character [2] | Water content [3] [%] | assay value [4] [%] | glass transition temperature (Tg), transition event [5] [°C] | Structure (SMILES) | Biopharmaceutical Classification System (BCS) class [1] |
| --- | --- | --- | --- | --- | --- |
|  |  |  |  | Cc1nc(Nc2ncc(C(=O)Nc3c(C)cccc3Cl)s2)cc(N2CCN(CCO)CC2)n1 [dasatinib, N-(2-chloro-6-methylphenyl)-2-[[6-[4-(2-hydroxyethyl)-1-piperazinyl]-2-methyl-4-pyrimidinyl]amino]-5-thiazolecarboxamide] | Class II |
| exhibited crystalline character | 0.81 | 97.4 | 125.61 | Cc1nc(Nc2ncc(C(=O)Nc3c(C)cccc3Cl)s2)cc(N2CCN(CCO)CC2)n1 [spray-dried material of 100% dasatinib] |  |
